Measurements taken from ChEMBL document CHEMBL1201862, “PubChem BioAssay data set” (2004).
Calls of active or inactive are those of the source.

Experiments:
[1] = potency of ADAM10 substrate cleavage blockers – biochemical, QFRET, dose response (AID 743254);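 note: ADAM10 enzyme with the DM2 quenched FRET peptide as substrate; EDANS fluorescence gain as the protease cuts the substrate; inhibitor potency against ADAM10 proteolytic activity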
[2] = target: Disintegrin and metalloproteinase domain-containing protein 17 (Homo sapiens, UniProt P78536); assay: inhibition of ADAM17 substrate cleavage – biochemical, quenched FRET substrate, counter-screen for ADAM10 exosite inhibitor project, dose response (AID 743253)
Sequence of Disintegrin and metalloproteinase domain-containing protein 17 (P78536 whole entry, the tested form may be a part): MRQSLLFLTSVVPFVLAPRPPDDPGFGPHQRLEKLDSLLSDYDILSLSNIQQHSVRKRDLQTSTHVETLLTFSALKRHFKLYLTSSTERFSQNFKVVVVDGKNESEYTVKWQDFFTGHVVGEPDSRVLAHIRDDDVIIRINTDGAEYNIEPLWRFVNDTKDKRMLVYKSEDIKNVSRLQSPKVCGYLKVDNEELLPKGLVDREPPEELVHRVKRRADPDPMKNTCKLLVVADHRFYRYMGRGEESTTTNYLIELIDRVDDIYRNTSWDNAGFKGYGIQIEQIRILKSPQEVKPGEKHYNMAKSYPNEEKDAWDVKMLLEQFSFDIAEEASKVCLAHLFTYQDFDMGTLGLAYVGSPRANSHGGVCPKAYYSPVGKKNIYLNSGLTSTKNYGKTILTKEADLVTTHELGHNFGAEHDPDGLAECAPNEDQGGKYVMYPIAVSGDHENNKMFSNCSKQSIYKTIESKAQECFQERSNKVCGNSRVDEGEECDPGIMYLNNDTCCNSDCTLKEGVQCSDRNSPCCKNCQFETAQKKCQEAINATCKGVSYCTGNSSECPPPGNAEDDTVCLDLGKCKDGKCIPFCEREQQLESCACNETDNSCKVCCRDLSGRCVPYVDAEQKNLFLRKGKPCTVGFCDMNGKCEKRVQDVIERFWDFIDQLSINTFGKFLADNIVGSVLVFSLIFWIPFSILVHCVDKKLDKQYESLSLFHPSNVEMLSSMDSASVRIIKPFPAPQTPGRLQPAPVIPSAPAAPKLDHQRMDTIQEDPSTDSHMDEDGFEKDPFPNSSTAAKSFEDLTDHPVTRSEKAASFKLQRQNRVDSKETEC

[3] = target: T1, Protein skinhead-1 (Caenorhabditis elegans, UniProt P34707); type: functional
T1 sequence (P34707 whole entry): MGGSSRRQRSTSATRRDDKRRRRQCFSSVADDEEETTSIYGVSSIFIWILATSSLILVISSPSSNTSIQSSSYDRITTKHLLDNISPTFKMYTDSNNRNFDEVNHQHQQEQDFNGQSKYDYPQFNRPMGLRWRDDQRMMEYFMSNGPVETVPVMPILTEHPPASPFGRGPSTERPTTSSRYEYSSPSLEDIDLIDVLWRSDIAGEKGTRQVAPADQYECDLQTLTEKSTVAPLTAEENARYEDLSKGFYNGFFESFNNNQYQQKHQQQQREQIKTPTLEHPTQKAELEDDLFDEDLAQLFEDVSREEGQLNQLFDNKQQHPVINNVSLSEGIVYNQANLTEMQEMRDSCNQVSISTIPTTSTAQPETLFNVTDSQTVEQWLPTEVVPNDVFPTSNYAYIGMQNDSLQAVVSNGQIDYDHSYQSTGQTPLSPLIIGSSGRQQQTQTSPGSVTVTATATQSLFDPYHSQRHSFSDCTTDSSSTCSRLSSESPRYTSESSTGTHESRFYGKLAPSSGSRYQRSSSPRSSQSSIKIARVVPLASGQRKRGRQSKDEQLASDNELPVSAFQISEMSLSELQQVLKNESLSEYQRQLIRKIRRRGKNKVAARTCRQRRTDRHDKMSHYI

[4] = target: T2, Oxysterols receptor LXR-beta (Homo sapiens, UniProt P55055); type: functional, cell-based;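 note: agonist activity at LXR measured by a cell-based luminescence readout across a dose range, run as a counterscreen for daf-12 agonists; HEK293 cells with Gal4-LXR fusion and GAL4-driven luciferase reporter; potency for activation of Gal4-LXR reporter so compounds are agonists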
T2 sequence (P55055 whole entry): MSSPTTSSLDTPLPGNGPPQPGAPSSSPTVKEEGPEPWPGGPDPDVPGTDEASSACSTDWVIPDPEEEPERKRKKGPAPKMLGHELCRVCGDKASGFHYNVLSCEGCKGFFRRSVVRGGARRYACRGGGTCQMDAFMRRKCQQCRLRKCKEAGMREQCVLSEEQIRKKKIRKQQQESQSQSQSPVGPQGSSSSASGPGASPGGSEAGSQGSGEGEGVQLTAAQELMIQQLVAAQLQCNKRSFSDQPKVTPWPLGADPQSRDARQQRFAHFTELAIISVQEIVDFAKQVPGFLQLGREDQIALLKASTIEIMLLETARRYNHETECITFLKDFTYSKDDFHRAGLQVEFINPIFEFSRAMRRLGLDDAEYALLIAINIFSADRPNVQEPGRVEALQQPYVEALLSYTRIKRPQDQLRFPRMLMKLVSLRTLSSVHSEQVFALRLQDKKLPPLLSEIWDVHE

[5] = target: T3, Cysteine protease ATG4B (Homo sapiens, UniProt Q9Y4P1); type: functional;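 note: Fluorescence-based dose-response confirmation assay measuring inhibition of ATG4B activity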
T3 sequence (Q9Y4P1 whole entry): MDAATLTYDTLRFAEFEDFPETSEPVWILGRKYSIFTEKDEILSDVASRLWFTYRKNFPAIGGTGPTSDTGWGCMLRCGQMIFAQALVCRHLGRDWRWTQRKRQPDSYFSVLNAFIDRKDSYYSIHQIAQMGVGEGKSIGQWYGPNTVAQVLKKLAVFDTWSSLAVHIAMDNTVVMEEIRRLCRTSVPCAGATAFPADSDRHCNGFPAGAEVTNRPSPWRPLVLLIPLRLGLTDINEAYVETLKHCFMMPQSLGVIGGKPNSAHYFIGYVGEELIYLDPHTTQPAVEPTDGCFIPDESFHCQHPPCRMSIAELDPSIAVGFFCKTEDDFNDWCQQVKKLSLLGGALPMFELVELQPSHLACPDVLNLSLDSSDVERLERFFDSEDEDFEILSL

[6] = target: Phospholipase A2 (Homo sapiens, UniProt P04054); type: functional;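 note: confirmatory dose-response counterscreen on phospholipase A2, testing hits that came from an ultra-high-throughput screen for ATG4B inhibitors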
Sequence of Phospholipase A2 (P04054 whole entry, the tested form may be a part): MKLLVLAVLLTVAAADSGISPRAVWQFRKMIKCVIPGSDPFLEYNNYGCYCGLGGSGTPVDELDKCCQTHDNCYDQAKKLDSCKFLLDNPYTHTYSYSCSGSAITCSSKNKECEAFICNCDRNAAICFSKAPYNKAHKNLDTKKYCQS

[7] = target: T4, Carboxy-terminal domain RNA polymerase II polypeptide A small phosphatase 1 (Homo sapiens, UniProt Q9GZU7); assay: CTDSP1 inhibitors, concentration-response, biochemical, absorbance readout, ultra-high-throughput screen actives (AID 540297); type: functional
T4 sequence (Q9GZU7 whole entry): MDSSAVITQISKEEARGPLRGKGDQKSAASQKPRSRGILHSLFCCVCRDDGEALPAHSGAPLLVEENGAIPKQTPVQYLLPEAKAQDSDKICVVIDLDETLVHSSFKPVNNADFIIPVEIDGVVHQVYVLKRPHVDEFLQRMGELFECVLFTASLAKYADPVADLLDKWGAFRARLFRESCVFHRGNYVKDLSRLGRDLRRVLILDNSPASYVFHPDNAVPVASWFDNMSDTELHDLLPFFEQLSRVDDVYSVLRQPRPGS

[8] = target: T5, Caspase-6 (Homo sapiens, UniProt P55212); assay: inhibition of CASP6 peptide cleavage – biochemical, VEID-R110 fluorescence, cherry-pick, dose response (AID 720632)
T5 sequence (P55212 whole entry): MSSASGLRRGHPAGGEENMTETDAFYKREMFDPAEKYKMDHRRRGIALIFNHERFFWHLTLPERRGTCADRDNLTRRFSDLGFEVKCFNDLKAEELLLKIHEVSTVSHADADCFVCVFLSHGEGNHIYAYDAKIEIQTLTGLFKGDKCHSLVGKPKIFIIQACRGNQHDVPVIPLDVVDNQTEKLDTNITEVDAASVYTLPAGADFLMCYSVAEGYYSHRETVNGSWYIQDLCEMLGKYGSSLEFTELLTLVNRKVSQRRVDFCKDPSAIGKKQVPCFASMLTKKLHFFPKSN

[9] = target: T6, Caspase-7 (Homo sapiens, UniProt P55210); assay: caspase-7 enzyme inhibition, selectivity check – biochemical, DEVD-R110 fluorescence, cherry-pick, selectivity assay for caspase-6 inhibitor project, dose response (AID 743295); type: functional
T6 sequence (P55210 whole entry): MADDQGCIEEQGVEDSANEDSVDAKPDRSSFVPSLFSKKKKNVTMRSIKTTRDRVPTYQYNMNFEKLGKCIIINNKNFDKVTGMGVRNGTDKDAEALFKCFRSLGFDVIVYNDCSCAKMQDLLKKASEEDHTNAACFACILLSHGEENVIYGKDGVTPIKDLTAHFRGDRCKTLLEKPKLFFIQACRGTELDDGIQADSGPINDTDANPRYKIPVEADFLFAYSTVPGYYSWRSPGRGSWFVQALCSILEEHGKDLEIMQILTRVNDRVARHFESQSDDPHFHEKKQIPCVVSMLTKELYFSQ

[10] = target: Caspase-8 (Homo sapiens, UniProt Q14790); assay: inhibitors of purified CASP8 protease – biochemical, Z-IETD-R110 fluorescence, cherry-picked samples, selectivity assay for caspase-6 inhibitor project, dose response (AID 743294)
Sequence of Caspase-8 (Q14790 217-374 limits assumed): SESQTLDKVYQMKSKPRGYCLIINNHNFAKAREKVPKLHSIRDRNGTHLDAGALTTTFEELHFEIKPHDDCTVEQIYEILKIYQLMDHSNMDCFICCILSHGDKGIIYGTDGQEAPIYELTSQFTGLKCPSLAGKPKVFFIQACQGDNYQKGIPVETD
Sequence of Caspase-8 (Q14790 385-479 limits assumed): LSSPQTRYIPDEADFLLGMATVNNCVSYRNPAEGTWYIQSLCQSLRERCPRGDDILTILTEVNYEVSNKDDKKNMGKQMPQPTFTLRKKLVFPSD

[11] = target: T7, Caspase-3 (Homo sapiens, UniProt P42574); assay: human caspase-3 protease activity blockade – biochemical, fluorescence, cherry-picked samples, selectivity assay for caspase-6 allosteric inhibitor project, dose response (AID 743291)
T7 sequence (P42574 whole entry): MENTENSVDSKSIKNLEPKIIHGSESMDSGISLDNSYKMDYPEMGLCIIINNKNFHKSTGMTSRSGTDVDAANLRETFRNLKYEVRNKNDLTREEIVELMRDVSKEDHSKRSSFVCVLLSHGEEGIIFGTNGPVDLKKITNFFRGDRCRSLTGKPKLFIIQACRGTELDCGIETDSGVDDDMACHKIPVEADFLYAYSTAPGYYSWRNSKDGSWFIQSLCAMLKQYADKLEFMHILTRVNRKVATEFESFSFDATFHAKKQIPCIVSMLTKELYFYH

[12] = target: T8, Replicative DNA helicase DnaB (Mycobacterium tuberculosis, UniProt P9WMR3); assay: DnaB intein splicing inhibitors, dose response, biochemical, cell-free fluorescence (AID 449749); type: functional
T8 sequence (P9WMR3 whole entry): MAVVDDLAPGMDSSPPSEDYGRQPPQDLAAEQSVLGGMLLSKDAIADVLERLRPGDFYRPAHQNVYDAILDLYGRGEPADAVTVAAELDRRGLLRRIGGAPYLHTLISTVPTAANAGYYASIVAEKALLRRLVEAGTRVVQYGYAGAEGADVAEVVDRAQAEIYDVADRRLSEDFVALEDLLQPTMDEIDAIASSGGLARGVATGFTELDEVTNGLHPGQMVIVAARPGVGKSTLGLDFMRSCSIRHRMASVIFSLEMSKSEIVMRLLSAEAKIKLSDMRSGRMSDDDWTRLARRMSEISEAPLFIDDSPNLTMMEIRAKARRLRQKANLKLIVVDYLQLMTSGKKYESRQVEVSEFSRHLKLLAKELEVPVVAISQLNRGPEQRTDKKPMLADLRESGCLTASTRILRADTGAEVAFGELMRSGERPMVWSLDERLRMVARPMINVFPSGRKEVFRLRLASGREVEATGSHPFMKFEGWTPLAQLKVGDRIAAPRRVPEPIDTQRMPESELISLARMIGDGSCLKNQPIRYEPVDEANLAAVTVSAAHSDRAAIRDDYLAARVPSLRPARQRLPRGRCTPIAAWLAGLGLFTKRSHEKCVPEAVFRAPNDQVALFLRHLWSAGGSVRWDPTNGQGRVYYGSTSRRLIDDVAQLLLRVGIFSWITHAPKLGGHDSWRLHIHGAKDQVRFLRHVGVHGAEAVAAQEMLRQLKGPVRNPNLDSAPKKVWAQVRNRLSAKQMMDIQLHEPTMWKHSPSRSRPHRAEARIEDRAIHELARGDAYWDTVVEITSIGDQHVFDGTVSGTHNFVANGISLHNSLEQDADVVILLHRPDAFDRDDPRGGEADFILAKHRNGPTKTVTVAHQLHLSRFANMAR

[13] = target: T9, Protein RecA (Mycobacterium tuberculosis, UniProt P9WHJ3); assay: Fluorescence Cell-Free Homogeneous Dose Retest to Identify Inhibitors of RecA-Intein Splicing Activity. [Related pubchem assays (depositor defined):AID2097, AID2223, AID489010, AID492950]; type: functional
T9 sequence (P9WHJ3 whole entry): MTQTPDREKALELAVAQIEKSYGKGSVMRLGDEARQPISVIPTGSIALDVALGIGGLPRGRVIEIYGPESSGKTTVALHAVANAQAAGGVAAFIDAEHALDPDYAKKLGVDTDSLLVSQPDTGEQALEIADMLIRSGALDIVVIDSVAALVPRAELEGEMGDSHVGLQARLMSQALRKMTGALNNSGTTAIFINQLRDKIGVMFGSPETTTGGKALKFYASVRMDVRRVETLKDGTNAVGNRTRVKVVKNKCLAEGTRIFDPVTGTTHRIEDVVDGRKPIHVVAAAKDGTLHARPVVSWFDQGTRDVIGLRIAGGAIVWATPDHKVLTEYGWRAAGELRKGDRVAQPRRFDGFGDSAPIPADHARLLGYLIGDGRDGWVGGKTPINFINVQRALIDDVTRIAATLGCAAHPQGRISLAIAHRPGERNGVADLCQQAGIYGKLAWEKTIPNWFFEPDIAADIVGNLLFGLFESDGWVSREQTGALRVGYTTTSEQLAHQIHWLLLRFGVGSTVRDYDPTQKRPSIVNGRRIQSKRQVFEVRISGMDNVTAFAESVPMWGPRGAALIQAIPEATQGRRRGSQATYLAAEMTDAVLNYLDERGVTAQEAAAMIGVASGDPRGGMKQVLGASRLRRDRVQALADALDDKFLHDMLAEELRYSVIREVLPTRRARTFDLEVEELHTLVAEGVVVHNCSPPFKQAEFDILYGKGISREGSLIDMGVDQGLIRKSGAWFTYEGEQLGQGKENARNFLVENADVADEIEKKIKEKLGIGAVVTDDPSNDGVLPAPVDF

[14] = tested on: HEK293; assay: viability loss in HEK293T cells – cell-based, ATP luminescence, cherry-pick samples, cytotoxicity control, dose response (AID 687005); type: functional; conditions: Homo sapiens;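 note: cells exposed to compound for 48 hours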
[15] = HEK293 Cytotoxicity Assay Measured in Cell-Based System Using Plate Reader - 7071-01_Inhibitor_Dose_CherryPick_Activity_Set2.; type: functional
[16] = target: Protein Wnt-3a (Mus musculus, UniProt P27467); assay: SAR analysis of small molecule antagonists of Gli-SUFU in a Wnt3a luminescent reporter assay.; type: functional
Sequence of Protein Wnt-3a (P27467 whole entry): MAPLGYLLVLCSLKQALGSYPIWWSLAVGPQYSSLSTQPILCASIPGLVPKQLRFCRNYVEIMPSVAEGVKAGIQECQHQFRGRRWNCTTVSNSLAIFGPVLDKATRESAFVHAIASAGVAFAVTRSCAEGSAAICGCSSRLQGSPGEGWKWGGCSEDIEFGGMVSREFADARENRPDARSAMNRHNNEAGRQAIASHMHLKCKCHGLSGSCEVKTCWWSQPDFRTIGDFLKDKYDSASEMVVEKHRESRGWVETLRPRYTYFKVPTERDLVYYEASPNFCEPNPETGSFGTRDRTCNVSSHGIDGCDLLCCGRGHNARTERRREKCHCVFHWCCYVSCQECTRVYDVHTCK

[17] = general mammalian cell viability loss – inhibitor set, cherry-pick, set 2, cytotoxicity control for miR-122 modulator project, dose response (AID 720697); type: functional, cell-based
[18] = MITF Orthogonal Assay: SK-MEL-5 CTG Assay Measured in Cell-Based System Using Plate Reader - 2084-02_Inhibitor_Dose_DryPowder_Activity_Set7.; type: functional
[19] = MITF: Counter assay: A375 proliferation Measured in Cell-Based System Using Plate Reader - 2084-03_Inhibitor_Dose_DryPowder_Activity_Set8.; type: functional; conditions: A-375
[20] = inhibitors of TRPM1-promoter reporter in SK-MEL-5 – cell-based, luciferase, dry powder, set 8, MITF inhibitor project, dose response (AID 624430); type: functional

With CN(C)c1ccc(C(CNS(=O)(=O)c2ccc(F)c(F)c2)c2c[nH]c3ccccc23)cc1 (centres undefined) the IC50 [1] was > 7.72 µM (active) and the IC50 [2] was > 69.5 µM (inactive).
For Clc1ccc(OCCSc2ncccn2)c(Br)c1, the IC50 [3] was 40.4 µM (active) and the EC50 [4] was > 67.5 µM (inactive).
For O=c1oc(-c2ccccc2)nc2sc3c(c12)CCC3, the IC50 [5] was 5.65 µM (active), the IC50 [6] was 1.95 µM (active) and the IC50 [7] was 9.39 µM (active). For the same molecule, the AC50 [8] was 0.44 µM (active), the AC50 [9] was > 70 µM (inactive) and the AC50 [10] was 43.9 µM (active). For the same molecule, the AC50 [11] was 38.7 µM (active).
With CCOC(=O)c1ccc(N2C(=O)c3[nH]nc(-c4ccco4)c3C2c2ccc([N+](=O)[O-])cc2)cc1 (centres undefined) the AC50 [12] was 2.92 µM (active), the EC50 [13] was 56.2 µM (active) and the IC50 [1] was 17 µM (inactive). The IC50 [2] was > 69.5 µM (inactive).
For CCOC(=O)c1sc2nc3c(cc2c1N)COC(C)(CC)C3 (centres undefined), the EC50 [4] was > 67.5 µM (inactive).
For C[C@@H]1CN([C@H](C)CO)C(=O)c2cccc(NC(=O)c3ccncc3)c2O[C@H]1CN(C)C(=O)Nc1ccc(C(F)(F)F)cc1, the AC50 [14] was 27.7 µM (active) and the AC50 [15] was 27.7 µM (active).
For O=C(Nc1cc(N2CCCCC2)ncn1)c1ccc(Cl)cc1, the IC50 [16] was > 21.8 µM (inactive).
In the case of O=C(Nc1cc(N2CCCCC2)ncn1)c1ccccc1F, the IC50 [16] is reported as < 0.0426 µM (active).
With C/C=C/c1ccc([C@@H]2[C@@H](CO)N[C@@H]2CN(CC)C(=O)CN2CCOCC2)cc1 the AC50 [17] was 0.431 µM (active).
For CC(C)N1CCN(C2=C(Nc3ccc(Cl)cc3)C(=O)c3ccccc3C2=O)CC1, the AC50 [18] was 10.5 µM (active), the AC50 [19] was 54.7 µM (active) and the AC50 [20] was 2 µM (active).
